This passage reports Ki results from patent publication US10941138B2, “Quinoline and isoquinoline derivatives for treating pain and pain related conditions” (ESTEVE PHARMACEUTICALS, S.A., priority 2016, dated 2021).

The structures appear in SMILES notation.

Sequence of human α2δ-1 subunit of Cav2.2 calcium channel (P54289 25-1103): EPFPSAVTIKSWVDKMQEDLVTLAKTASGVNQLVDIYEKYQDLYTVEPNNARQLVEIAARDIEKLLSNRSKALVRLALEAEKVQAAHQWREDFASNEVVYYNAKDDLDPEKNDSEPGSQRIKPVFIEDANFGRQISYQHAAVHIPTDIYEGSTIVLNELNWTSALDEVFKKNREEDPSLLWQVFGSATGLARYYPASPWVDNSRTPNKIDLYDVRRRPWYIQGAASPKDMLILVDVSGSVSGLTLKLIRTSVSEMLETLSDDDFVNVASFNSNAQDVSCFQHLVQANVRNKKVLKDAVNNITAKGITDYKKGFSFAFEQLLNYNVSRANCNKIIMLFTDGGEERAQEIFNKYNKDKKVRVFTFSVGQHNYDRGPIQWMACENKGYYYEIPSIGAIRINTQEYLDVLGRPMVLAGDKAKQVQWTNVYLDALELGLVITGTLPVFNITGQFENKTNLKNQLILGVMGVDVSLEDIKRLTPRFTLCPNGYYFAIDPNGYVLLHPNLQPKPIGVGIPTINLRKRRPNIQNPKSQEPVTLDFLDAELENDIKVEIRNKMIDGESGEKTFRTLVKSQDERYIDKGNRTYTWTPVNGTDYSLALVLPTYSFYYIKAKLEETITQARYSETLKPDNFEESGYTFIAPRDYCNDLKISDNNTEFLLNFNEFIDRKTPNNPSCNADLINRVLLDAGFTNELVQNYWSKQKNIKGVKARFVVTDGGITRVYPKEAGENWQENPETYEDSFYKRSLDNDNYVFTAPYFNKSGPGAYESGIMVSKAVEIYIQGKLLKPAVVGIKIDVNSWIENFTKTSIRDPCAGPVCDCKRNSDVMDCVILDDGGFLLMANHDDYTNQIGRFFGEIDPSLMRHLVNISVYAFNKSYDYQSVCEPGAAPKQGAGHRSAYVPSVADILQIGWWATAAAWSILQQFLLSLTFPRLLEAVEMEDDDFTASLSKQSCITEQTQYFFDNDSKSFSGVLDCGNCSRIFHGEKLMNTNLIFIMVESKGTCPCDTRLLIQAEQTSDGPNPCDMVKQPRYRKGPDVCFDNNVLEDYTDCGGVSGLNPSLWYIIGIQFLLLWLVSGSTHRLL

The target of this assay is human α2δ-1 subunit of Cav2.2 calcium channel (Homo sapiens (Human), UniProt P54289). As to the kind of experiment: Binding assay to human α2δ-1 subunit of Cav2.2 calcium channel ([3H]-Gabapentin). As to conditions: Table 1, human α2δ-1 enriched membranes, read-out: Ki (nM) alpha2delta Hum. Here is the method:
Binding Assay to Human α2δ-1 Subunit of Cav2.2 Calcium Channel.
Human α2δ-1 enriched membranes (2.5 μg) were incubated with 15 nM of radiolabeled [3H]-Gabapentin in assay buffer containing Hepes-KOH 10 mM, pH 7.4.
NSB (non specific binding) was measured by adding 10 μM pregabalin. The binding of the test compound was measured at five different concentrations. After 60 min incubation at 27° C., binding reaction was terminated by filtering through Multiscreen GF/C (Millipore) presoaked in 0.5% polyethyleneimine in Vacuum Manifold Station, followed by 3 washes with ice-cold filtration buffer containing 50 mM Tris-HCl, pH 7.4. Filter plates were dried at 60° C. for 1 h and 30 μl of scintillation cocktail were added to each well before radioactivity reading.
Readings were performed in a Trilux 1450 Microbeta radioactive counter (Perkin Elmer).
`CNCCC(Oc1ccnc2ccccc12)c1cccs1` (stereo not shown) [Example 4, N-methyl-3-(quinolin-4-yloxy)-3-(thiophen-2-yl)propan-1-amine]: the Ki was at least 3000 nM.

On to `CCNCCC(Oc1cccc2cnccc12)c1cccs1` (stereo not shown) [Example 5, N-ethyl-3-(isoquinolin-5-yloxy)-3-(thiophen-2-yl)propan-1-amine], for which the Ki is under 100 nM.

With `c1ccc(CNCCC(Oc2cccc3cnccc23)c2cccs2)cc1` (stereo not shown) [Example 6, N-benzyl-3-(isoquinolin-5-yloxy)-3-(thiophen-2-yl)propan-1-amine], the Ki is at least 3000 nM.

`CNCC[C@@H](Oc1ccc2ncccc2c1)c1cccs1` [Example 7, (R)—N-Methyl-3-(quinolin-6-yloxy)-3-(thiophen-2-yl)propan-1-amine]: the Ki was at least 3000 nM.

With `CN(C)CCC(Oc1nccc2ccccc12)c1cccs1` (stereo not shown) [Example 8, 3-(isoquinolin-1-yloxy)-N,N-dimethyl-3-(thiophen-2-yl)propan-1-amine], the Ki is at least 3000 nM.

Take `CNCCC(Oc1cccc2c(C(N)=O)nccc12)c1cccs1` (stereo not shown) [Example 16, 5-(3-(methylamino)-1-(thiophen-2-yl)propoxy)isoquinoline-1-carboxamide]: the Ki is under 100 nM.

Consider `CNCCC(Oc1cccc2ccncc12)C1CCOCC1` (stereo not shown) [Example 19, 3-(isoquinolin-8-yloxy)-N-methyl-3-(tetrahydro-2H-pyran-4-yl)propan-1-amine], for which the Ki is at least 3000 nM.

As to `CNCCC(Oc1cccc2ncccc12)C1CCOCC1` (stereo not shown) [Example 20, N-methyl-3-(quinolin-5-yloxy)-3-(tetrahydro-2H-pyran-4-yl)propan-1-amine], the Ki was at least 3000 nM.

On to `CNCCC(Oc1cccc2ccncc12)c1cccnc1` (stereo not shown) [Example 21, 3-(isoquinolin-8-yloxy)-N-methyl-3-(pyridin-3-yl)propan-1-amine], for which the Ki was at least 3000 nM.

For `CNCCC(Oc1cccc2ccncc12)c1ccccn1` (stereo not shown) [Example 22, 3-(isoquinolin-8-yloxy)-N-methyl-3-(pyridin-2-yl)propan-1-amine], the Ki is at least 3000 nM.

As to `CNCCC(Oc1cccc2cnccc12)c1ccccn1` (stereo not shown) [Example 23, 3-(isoquinolin-5-yloxy)-N-methyl-3-(pyridin-2-yl)propan-1-amine], the Ki is at least 3000 nM.

For the compound `CNCCC(Oc1cccc2ccncc12)c1cccc(C(F)(F)F)n1` (stereo not shown) [Example 24, 3-(isoquinolin-8-yloxy)-N-methyl-3-(6-(trifluoromethyl)pyridin-2-yl)propan-1-amine], the Ki is at least 3000 nM.

For the compound `CNCCC(Oc1cccc2cnccc12)c1cncc(Cl)c1` (stereo not shown) [Example 26, 3-(5-chloropyridin-3-yl)-3-(isoquinolin-5-yloxy)-N-methylpropan-1-amine], the Ki was at least 3000 nM.

As to `CNCCC(Oc1cccc2ccncc12)c1ccncc1` (stereo not shown) [Example 27, 3-(isoquinolin-8-yloxy)-N-methyl-3-(pyridin-4-yl)propan-1-amine], the Ki is at least 3000 nM.

As for `CNCCC(Oc1cccc2cnccc12)c1ccc(C(F)(F)F)nc1` (stereo not shown) [Example 28, 3-(isoquinolin-5-yloxy)-N-methyl-3-(6-(trifluoromethyl)pyridin-3-yl)propan-1-amine], the Ki was at least 3000 nM.

For the compound `CNCCC(Oc1cccc2cnccc12)c1cc(C(F)(F)F)ccn1` (stereo not shown) [Example 29, 3-(isoquinolin-5-yloxy)-N-methyl-3-(4-(trifluoromethyl)pyridin-2-yl)propan-1-amine], the Ki is at least 3000 nM.

As to `CNCCC(Oc1cccc2ncccc12)c1cc(C(F)(F)F)ccn1` (stereo not shown) [Example 31, N-methyl-3-(quinolin-5-yloxy)-3-(4-(trifluoromethyl)pyridin-2-yl)propan-1-amine], the Ki was at least 3000 nM.

On to `CNCCC(Oc1cccc2ncccc12)c1nc(C)cs1` (stereo not shown) [Example 32, N-methyl-3-(4-methylthiazol-2-yl)-3-(quinolin-5-yloxy)propan-1-amine], for which the Ki fell in the range of 100 to 500 nM.

`CNCCC(Oc1cccc2ncccc12)c1ccccn1` (stereo not shown) [Example 33, N-methyl-3-(pyridin-2-yl)-3-(quinolin-5-yloxy)propan-1-amine]: the Ki was at least 3000 nM.
